# Results as given in US20210340177A1, “BIOACTIVE PEPTIDES HAVING HIGH BINDING AFFINITY TO HUMAN MUSCULAR NICOTINIC ACETYLCHOLINE RECEPTOR” (priority 2020, published 2021).
# Key:
# [1] = target: human muscular nicotinic acetylcholine receptor (HmnAChR) (Homo sapiens, UniProt P02708+Q04844); assay: Binding energy of peptides in the HmnAChR binding site over runs of genetic algorithm; conditions: Table 3, difference of binding energies (no unit printed in Table 3)
# [2] = target: human muscular nicotinic acetylcholine receptor (HmnAChR) (human)
# muscle cells = assay type: cell-based; conditions: for Contraction of muscle cells after the washing step (reversibility): incubation for 24 hours followed by a washing step
# Description: The efficacy of peptides V0083091A (KKYK; SEQ ID NO: 1) and V0083092A (KWKK; […]. Muscle cells were incubated or treated without (control) or with compounds, for example, peptides V0083091A and V0083092A, and contraction of the muscle cells was evaluated after incubation for 5 hours, after incubation for 24 hours, or after incubation for 24 hours followed by a washing step.
# [3] = system: Human epidermal keratinocytes (HEKs); assay: MTT assay on human epidermal keratinocytes in in vitro cultures; conditions: 24 hours after treatment
# human muscular nicotinic acetylcholine receptor (HmnAChR) (human), sequence (P02708 21-457, chain 1 of 4): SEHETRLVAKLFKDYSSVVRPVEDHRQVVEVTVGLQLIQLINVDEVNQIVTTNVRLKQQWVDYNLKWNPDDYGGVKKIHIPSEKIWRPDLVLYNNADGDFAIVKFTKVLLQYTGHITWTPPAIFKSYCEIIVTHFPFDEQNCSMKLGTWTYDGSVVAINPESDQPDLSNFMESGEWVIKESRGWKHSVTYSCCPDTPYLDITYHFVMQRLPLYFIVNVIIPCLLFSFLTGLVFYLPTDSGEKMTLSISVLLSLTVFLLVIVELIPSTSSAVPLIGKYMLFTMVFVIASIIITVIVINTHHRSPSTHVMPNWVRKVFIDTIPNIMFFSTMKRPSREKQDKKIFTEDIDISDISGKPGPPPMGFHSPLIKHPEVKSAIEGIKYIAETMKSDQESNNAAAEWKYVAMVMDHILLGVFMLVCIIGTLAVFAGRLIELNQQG
# human muscular nicotinic acetylcholine receptor (HmnAChR) (human), sequence (P11230 24-501, chain 2 of 4, further chain): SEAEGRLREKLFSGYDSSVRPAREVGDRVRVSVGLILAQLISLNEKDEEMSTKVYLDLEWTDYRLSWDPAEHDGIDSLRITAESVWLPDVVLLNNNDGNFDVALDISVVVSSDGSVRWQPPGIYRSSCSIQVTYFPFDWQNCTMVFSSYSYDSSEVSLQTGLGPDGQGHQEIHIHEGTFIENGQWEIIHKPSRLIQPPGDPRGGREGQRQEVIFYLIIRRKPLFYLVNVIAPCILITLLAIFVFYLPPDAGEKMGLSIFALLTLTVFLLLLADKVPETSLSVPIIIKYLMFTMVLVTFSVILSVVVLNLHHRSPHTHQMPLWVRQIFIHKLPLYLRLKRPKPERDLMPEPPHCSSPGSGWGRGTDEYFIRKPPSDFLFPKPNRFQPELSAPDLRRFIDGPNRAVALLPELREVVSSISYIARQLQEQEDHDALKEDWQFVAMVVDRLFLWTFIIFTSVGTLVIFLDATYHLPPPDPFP
# human muscular nicotinic acetylcholine receptor (HmnAChR) (human), sequence (Q07001 22-517, chain 3 of 4, further chain): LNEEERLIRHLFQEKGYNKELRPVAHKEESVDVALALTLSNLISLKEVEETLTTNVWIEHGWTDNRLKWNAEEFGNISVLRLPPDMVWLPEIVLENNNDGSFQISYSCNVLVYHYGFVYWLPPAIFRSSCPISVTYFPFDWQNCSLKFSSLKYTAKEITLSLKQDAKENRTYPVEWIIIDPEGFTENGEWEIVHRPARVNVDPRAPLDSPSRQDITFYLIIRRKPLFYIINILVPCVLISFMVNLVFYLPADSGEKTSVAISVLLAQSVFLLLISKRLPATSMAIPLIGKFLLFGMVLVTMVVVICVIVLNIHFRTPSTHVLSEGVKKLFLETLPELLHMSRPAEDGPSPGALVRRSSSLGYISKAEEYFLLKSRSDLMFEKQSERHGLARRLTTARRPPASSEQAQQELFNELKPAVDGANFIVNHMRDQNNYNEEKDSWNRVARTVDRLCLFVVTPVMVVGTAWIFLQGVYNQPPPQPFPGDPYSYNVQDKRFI
# human muscular nicotinic acetylcholine receptor (HmnAChR) (human), sequence (Q04844 21-493, chain 4 of 4, further chain): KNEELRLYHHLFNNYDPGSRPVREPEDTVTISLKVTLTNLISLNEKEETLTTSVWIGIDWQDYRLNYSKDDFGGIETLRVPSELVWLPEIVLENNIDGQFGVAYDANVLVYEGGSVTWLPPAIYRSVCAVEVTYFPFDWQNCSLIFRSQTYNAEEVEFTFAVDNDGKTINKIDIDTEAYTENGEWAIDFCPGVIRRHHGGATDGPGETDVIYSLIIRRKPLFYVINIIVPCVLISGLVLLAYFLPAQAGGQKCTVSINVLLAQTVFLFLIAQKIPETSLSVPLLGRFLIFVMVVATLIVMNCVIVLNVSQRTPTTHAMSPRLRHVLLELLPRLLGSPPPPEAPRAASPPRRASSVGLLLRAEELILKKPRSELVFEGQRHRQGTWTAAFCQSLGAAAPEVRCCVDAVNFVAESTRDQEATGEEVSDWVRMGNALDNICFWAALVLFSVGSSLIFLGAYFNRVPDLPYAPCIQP
# human muscular nicotinic acetylcholine receptor (HmnAChR), sequence (P02708 21-457): as the sequence (P02708 21-457, chain 1 of 4) above
# human muscular nicotinic acetylcholine receptor (HmnAChR), sequence (Q04844 21-493): as the sequence (Q04844 21-493, chain 4 of 4, further chain) above
# human muscular nicotinic acetylcholine receptor (HmnAChR), sequence (P11230 24-501 partner): as the sequence (P11230 24-501, chain 2 of 4, further chain) above
# human muscular nicotinic acetylcholine receptor (HmnAChR), sequence (Q07001 22-517 partner): as the sequence (Q07001 22-517, chain 3 of 4, further chain) above
compound,measurement,setting,value
dipeptide diaminobutyroyl benzylamide diacetate [SYN ®-AKE],(Best Result − Average),[1],-3.01 kcal/mol
peptide V0083091A (KKYK; SEQ ID NO: 1),"Binding Energy, All 100 Average",[2],-8.39 kcal/mol
same,"Binding Energy, Best Result",[2],-11.4 kcal/mol
same,"Binding Energy, Top 10 Average",[2],-10.2 kcal/mol
C/C=C/C=C\CC/C=C/C(=O)NCC(C)C [spilanthol],"Inhibition of contraction of muscle cells, effect size","muscle cells; 1 μM or 10 μM, 5 or 24 hours after incubation, p value<5%",1.5-2
same,Contraction of muscle cells after the washing step (reversibility),muscle cells,inhibitory effect was lost
Lys-Lys-Tyr-Lys [Peptide V0083091A],Proliferation of the HEKs,[3],induced proliferation
same,Inhibition effect on muscle cell contraction,"muscle cells; 1 μM, observable after incubation for 24 hours",much less inhibition effect
same,Contraction of muscle cells after the washing step (reversibility),muscle cells,no clear recovery of the contraction power
